The results in this text go back to patent US10364256B2 (GlaxoSmithKline Intellectual Property Development Limited, priority 2015, dated 2019).

Assay [1] deals with NQO1 specific enzyme activity in BEAS-2B cells (marker for NRF2 activation). Kind of assay: BEAS-2B NQO1 MTT Assay. The assay is classed as cell-based. Conditions: Homo sapiens, compound incubated 48 hours, read-out: EC50 (NQO1 specific enzyme activity induction). The text has this: BEAS-2B NQO1 MTT Assay NAD(P)H:quinone oxidoreductase 1 (NQO1), also called DT diaphorase, is a homodimeric FAD-containing enzyme that catalyzes obligatory NAD(P)H-dependent two-electron reductions of quinones and protects cells against the toxic and neoplastic effects of free radicals and reactive oxygen species arising from one-electron reductions. The transcription of NQO1 is finely regulated by NRF2, and thus NQO1 activity is a good marker for NRF2 activation. On day one, frozen BEAS-2B cells (ATCC) are thawed in a water bath, counted, and re-suspended at a concentration of 250,000 cells/mL. Fifty microliters of cells are plated in 384 well black clear-bottomed plates. Plates are incubated at 37° C., 5% CO2 overnight. On day two, plates are centrifuged and 50 nL of compound or controls are added to the cells. Plates are then incubated at 37° C., 5% CO2 for 48 hours. On day four, medium is aspirated from the plate and crude cell lysates are made by adding 13 uL of 1× Cell Signaling Technologies lysis buffer with 1 Complete, Mini, EDTA-free Protease Inhibitor Tablet (Roche) for each 10 mL of lysis buffer. After lysis plates are incubated for 20 minutes at room temperature. Two microliters of lysate are removed for use in Cell Titer Glo assay (Promega) and MTT cocktail is prepared (Prochaska et. al. 1998) for measurement of NQO1 activity. Fifty microliters of MTT cocktail is added to each well, plate is centrifuged, and analyzed on an Envision plate reader (Perkin Elmer) using Absorbance 570 nm label for 30 minutes. Product formation is measured kinetically and the pEC50 of NQO1 specific activity induction is calculated by plotting the change in absorbance (Delta OD/min) versus the log of compound concentration followed by 3-parameter fitting. pEC50 is the negative log of the EC50.

The target in assay [2] is T1, Keap1 Kelch domain (321-609) / TAMRA-labeled 16mer NRF2 peptide (ETGE motif) (Homo sapiens, UniProt Q14145).
T1 construct: the Kelch domain (321-609) of Keap1 is used
T1 sequence (Q14145 321-609): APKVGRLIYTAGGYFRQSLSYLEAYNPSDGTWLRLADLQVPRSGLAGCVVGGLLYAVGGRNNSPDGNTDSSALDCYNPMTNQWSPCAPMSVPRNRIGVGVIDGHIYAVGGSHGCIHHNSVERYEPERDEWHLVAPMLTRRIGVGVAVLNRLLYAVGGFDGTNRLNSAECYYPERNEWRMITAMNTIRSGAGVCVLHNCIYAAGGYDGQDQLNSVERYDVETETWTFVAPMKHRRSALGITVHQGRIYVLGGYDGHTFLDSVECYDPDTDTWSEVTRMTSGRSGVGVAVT
The assay is described as follows: NRF2-Keap1 FP Assay (Keap1 Kelch fluorescence polarization). The class given is binding. Conditions: 20 nM Keap1 (321-609), 8 nM Tamra labeled peptide. The text has this: One model for the NRF2-Keap1 interaction is through two binding sites in the Neh2 domain on NRF2. The two sites are referred to as the DLG binding motif (latch domain, uM affinity) and the ETGE binding motif (hinge domain, nM affinity). The Keap1 protein consists of an N-terminal region (NTR), a broad complex, tramtrack, and brick a′ brac domain (BTB), an intervening region (IVR), a double glycine repeat domain (DGR or Kelch), and a C-terminal region. The DLG and ETGE motifs of NRF2's Neh2 domain bind to the Kelch domain of Keap1 at different affinities. In the Keap1 Kelch fluorescence polarization (FP) assay, a TAMRA-labeled 16mer peptide (AFFAQLQLDEETGEFL) containing the ETGE motif of NRF2 and the Kelch domain (321-609) of Keap1 is used. The assay determines if a compound interferes with the binding between Keap1 […] and the TAMRA-labeled peptide. Binding of TAMRA-labeled NRF2 peptide to Keap1 (321-609) results in a high FP signal. If a compound interferes with the binding between the peptide and the protein, it will cause the assay signal to decrease. Thus, assay signal is inversely proportional to binding inhibition.
100 nl of 100× compound dose response curves (serial 3-fold dilutions) in DMSO are stamped using an Echo liquid handling system (Labcyte) into 384-well low volume black assay plates (Greiner, #784076), with DMSO in columns 6 and 18. The top concentration of compound is located in columns 1 and 13. Keap1 (321-609) is diluted to 40 nM (2×) in 1× assay buffer (50 mM Tris, pH 8.0, 100 mM NaCl, 5 mM MgCl2, 1 mM DTT, 2 mM CHAPS, and 0.005% BSA) and 5 ul is added using a Multidrop Combi (Thermo Electron Corporation) equipped with a metal tip dispenser to all wells of the compound plate, except column 18. Column 18 receives only 5 ul of assay buffer. Immediately, 5 uL of 16 nM (2×) of Tamra labeled peptide (AFFAQLQLDEETGEFL, 21st Century Biochemicals) is added to all wells of the plate. The plates are spun at 500 rpm for 1 min, incubated for 1 hr at room temperature, and read on an Analyst GT (Molecular Devices) equipped with excitation (530/25 nm) and emission (580/10 nm) filters designed for Tamra probes. A 561 nm dichroic mirror is also used in the Analyst. The final assay concentrations of Keap1 (321-609) and Tamra labeled peptide are 20 nM and 8 nM, respectively. Fluorescence measurements, represented as mP, are used in the transformation of the data. Compound activity is calculated based on percent inhibition, normalized against controls in the assay (Control 1 contains the Tamra peptide and Keap1 (321-609) together (0% response) and control 2 contains the Tamra peptide alone (100% response)). Data analysis is handled using the software package Abase XE (Surrey, United Kingdom. The % inhibition values are calculated by the equation: 100−(100*((compound response−average control 2)/(average control 1−average control2))). For calculation of pIC50s, Abase XE uses a four parameter equation. pIC50 is the negative log of the IC50.

Assay [3] deals with T2, full length Keap1 protein / full length NRF2 protein (Homo sapiens, UniProt Q14145).
T2 construct: full length NRF2 protein and full length Keap1 protein (Keap1 exists a dimer) are used; His
T2 sequence (Q14145 whole entry): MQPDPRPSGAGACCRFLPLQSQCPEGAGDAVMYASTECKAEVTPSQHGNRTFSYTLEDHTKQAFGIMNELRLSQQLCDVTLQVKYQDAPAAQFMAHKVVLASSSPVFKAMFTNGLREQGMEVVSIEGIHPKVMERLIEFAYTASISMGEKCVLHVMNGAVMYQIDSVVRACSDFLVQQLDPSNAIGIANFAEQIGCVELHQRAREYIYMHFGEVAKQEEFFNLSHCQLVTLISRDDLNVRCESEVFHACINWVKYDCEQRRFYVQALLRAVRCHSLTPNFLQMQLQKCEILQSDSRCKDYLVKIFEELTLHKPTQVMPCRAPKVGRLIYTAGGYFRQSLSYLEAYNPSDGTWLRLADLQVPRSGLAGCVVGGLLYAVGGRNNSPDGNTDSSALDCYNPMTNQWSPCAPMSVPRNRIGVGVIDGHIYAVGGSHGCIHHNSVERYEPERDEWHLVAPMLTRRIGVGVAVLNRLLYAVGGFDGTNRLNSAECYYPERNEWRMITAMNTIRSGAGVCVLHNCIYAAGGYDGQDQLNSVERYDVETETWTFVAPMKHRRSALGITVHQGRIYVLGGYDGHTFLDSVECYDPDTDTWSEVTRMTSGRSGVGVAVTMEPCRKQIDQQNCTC
Kind of assay: NRF2-Keap1 TR-FRET Low Protein Assay. The assay is classed as binding. Conditions: 1.25 nM Keap1 FlagHis and 2.5 nM biotin-NRF2 added. The text has this:
NRF2-Keap1 TR-FRET Low Protein Assay In the NRF2-Keap1 TR-FRET (time-resolved fluorescence resonance energy transfer) low protein assay, full length NRF2 protein and full length Keap1 protein (Keap1 exists a dimer) are used. The assay detects a compound's ability to displace the binding of Keap1 […] with biotinylated Avi-NRF2 protein. Biotin-NRF2 binds to streptavidin-europium (a component of the detection mix) and Keap1 […] is recognized by anti-Flag APC (allophycocyanin) antibody (also a component of the detection mix). If binding occurs between the two proteins, there will be an energy transfer from the Eu+3 (donor) at 615 nm to the APC (acceptor) at 665 nm. A potential NRF2 inhibitor will cause a reduction in the TR-FRET signal by interfering with the binding of Keap1 to NRF2. Ten nanoliters of 100× compound dose response curves (serial 3-fold dilutions) in DMSO are stamped using an Echo liquid handling system (Labcyte) into 384-well, low volume, black assay plates (Greiner, #784076), with DMSO in columns 6 and 18. An additional 90 nl DMSO is added to each well, to bring the total volume to 100 nl per well. The top concentration of compound is located in columns 1 and 13, with the serial dilutions going across the row. All reagents are diluted in assay buffer (50 mM Tris, pH 8.0, 5 mM MgCl2, 100 mM NaCl, 0.005% BSA, 1 mM DTT, and 2 mM CHAPS. The BSA, DTT, and CHAPS are added to the assay buffer on the day of assay. […] Wells in column 18 receive 5 ul of assay buffer instead. Plates are centrifuged at 500 rpm for 1 minute, covered with a plate lid, and incubated at 37° C. for 2.25 hours. Plates are then removed from the incubator and allowed to cool to RT for 15 minutes. Five microliters of 2.5 nM biotin-NRF2 protein is then added to all wells of the plates and the plates are spun at 500 rpm for 1 minute, followed by incubating at 4° C. for 1.25 hours. The plates are then allowed to warm to RT for 15 minutes, followed by the addition of 10 ul of detection mix (1 nM Streptavidin Eu+W1024 and 5 ug/ml mouse anti-DYKDDDDK IgG conjugated to SureLight APC antibody; both from Columbia Biosciences) to all wells. Plates are spun at 500 rpm for 1 minute, incubated for 1 hour at RT, and read on an Envision plate reader using a 320 nm excitation filter and 615 nm and 665 nm emission filters. […] Data analysis is handled using the software package Abase XE (Surrey, United Kingdom). […] For calculation of pIC50s, Abase XE uses a four parameter equation. pIC50 is the negative log of the IC50.

As for `Cc1c(O[C@@H](C)C2CCCCC2)cccc1-c1cccc(-n2ncc(C(=O)O)c2[C@H]2C[C@@H]2c2cn(C)nn2)c1` (racemic) [Example 71, 1-(3′-((S)-1-Cyclohexylethoxy)-2′-methyl-[1,1′-biphenyl]-3-yl)-5-(trans-2-(1-methyl-1H-1,2,3-triazol-4-yl)cyclopropyl)-1H-pyrazole-4-carboxylic Acid], the EC50 in assay [1] lay in the range of 1000 to 10000 nM. Further, the IC50 in assay [2] and in assay [3] was 1000 to 10000 nM throughout.
Take `Cc1c(OCC2CCCCC2)cccc1-c1cccc(-n2ncc(C(=O)O)c2[C@H]2C[C@@H]2c2cn(C)nn2)c1` (racemic) [Example 72, 1-(3′-(Cyclohexylmethoxy)-2′-methyl-[1,1′-biphenyl]-3-yl)-5-(trans-2-(1-methyl-1H-1,2,3-triazol-4-yl)cyclopropyl)-1H-pyrazole-4-carboxylic Acid]: in assay [1], the EC50 fell in the range of 10 to 100 nM. In addition, the IC50 in assay [2] and in assay [3] was 100 to 1000 nM throughout.
For `CCn1cc([C@@H]2C[C@H]2c2c(C(=O)O)cnn2-c2cccc(-c3cccc(O[C@@H](C)C4CCCCC4)c3)c2)nn1` (racemic) [Example 76, 1-(3′-((S)-1-Cyclohexylethoxy)-[1,1′-biphenyl]-3-yl)-5-(trans-2-(1-ethyl-1H-1,2,3-triazol-4-yl)cyclopropyl)-1H-pyrazole-4-carboxylic acid], the EC50 in assay [1] was in the range of 1 to 10 nM. For the same compound, the IC50 in assay [2] and in assay [3] was 10 to 100 nM each time.
In the case of `C[C@H](Oc1cccc(-c2cccc(-n3ncc(C(=O)O)c3[C@@H]3C[C@H]3c3cn(C4COC4)nn3)c2)c1)C1CCCCC1` (racemic) [Example 77, 1-(3′-((S)-1-Cyclohexylethoxy)-[1,1′-biphenyl]-3-yl)-5-(trans-2-(1-(oxetan-3-yl)-1H-1,2,3-triazol-4-yl)cyclopropyl)-1H-pyrazole-4-carboxylic acid], in assay [1], the EC50 is 10 to 100 nM. Besides, the IC50 in assay [2] and in assay [3] was 10 to 100 nM each time.
`C[C@H](Oc1cccc(-c2cccc(-n3ncc(C(=O)O)c3[C@@H]3C[C@H]3c3cn(C4CCC4)nn3)c2)c1)C1CCCCC1` (racemic) [Example 78, 5-(trans-2-(1-Cyclobutyl-1H-1,2,3-triazol-4-yl)cyclopropyl)-1-(3′-((S)-1-cyclohexylethoxy)-[1,1′-biphenyl]-3-yl)-1H-pyrazole-4-carboxylic acid]: in assay [1], the EC50 lay in the range of 1 to 10 nM. Also, the IC50 in assay [2] and in assay [3] was 10 to 100 nM in each case.
For `C[C@H](Oc1cccc(-c2cccc(-n3ncc(C(=O)O)c3[C@@H]3C[C@H]3c3cn(C4CN(C(=O)OC(C)(C)C)C4)nn3)c2)c1)C1CCCCC1` (racemic) [Example 80, 5-(trans-2-(1-(1-(tert-Butoxycarbonyl)azetidin-3-yl)-1H-1,2,3-triazol-4-yl)cyclopropyl)-1-(3′-((S)-1-cyclohexylethoxy)-[1,1′-biphenyl]-3-yl)-1H-pyrazole-4-carboxylic acid], the EC50 in assay [1] was 10 to 100 nM. Besides, the IC50 lay within 100 to 1000 nM in assay [2] and 10 to 100 nM in assay [3].
On to `C[C@H](Oc1cccc(-c2cccc(-n3ncc(C(=O)O)c3[C@@H]3C[C@H]3c3cn(C4CCN(C(=O)OC(C)(C)C)CC4)nn3)c2)c1)C1CCCCC1` (racemic) [Example 81, 5-(trans-2-(1-(1-(tert-Butoxycarbonyl)piperidin-4-yl)-1H-1,2,3-triazol-4-yl)cyclopropyl)-1-(3′-((S)-1-cyclohexylethoxy)-[1,1′-biphenyl]-3-yl)-1H-pyrazole-4-carboxylic acid], for which the EC50 in assay [1] is 10 to 100 nM. Besides, the IC50 in assay [2] and in assay [3] was 100 to 1000 nM throughout.
In the case of `C[C@H](Oc1cccc(-c2cccc(-n3ncc(C(=O)O)c3[C@@H]3C[C@H]3c3cn(C4CCN(C)CC4)nn3)c2)c1)C1CCCCC1` (racemic) [Example 82, 1-(3′-((S)-1-Cyclohexylethoxy)-[1,1′-biphenyl]-3-yl)-5-(trans-2-(1-(1-methylpiperidin-4-yl)-1H-1,2,3-triazol-4-yl)cyclopropyl)-1H-pyrazole-4-carboxylic acid], in assay [1], the EC50 is 10 to 100 nM. Moreover, the IC50 in assay [2] and in assay [3] was 10 to 100 nM throughout.
For the compound `C[C@H](Oc1cccc(-c2cccc(-n3ncc(C(=O)O)c3[C@@H]3C[C@H]3c3cn(C4CCCCC4)nn3)c2)c1)C1CCCCC1` (racemic) [Example 84, 5-(trans-2-(1-Cyclohexyl-1H-1,2,3-triazol-4-yl)cyclopropyl)-1-(3′-((S)-1-cyclohexylethoxy)-[1,1′-biphenyl]-3-yl)-1H-pyrazole-4-carboxylic acid], in assay [1], the EC50 fell in the range of 10 to 100 nM. The values for the IC50 in assay [2] and in assay [3] were 100 to 1000 nM and 10 to 100 nM, respectively.
